The experiment concerns the target T1, human 4lg B7-H3 (Homo sapiens, UniProt Q5ZPR3).
T1 sequence (Q5ZPR3 29-534): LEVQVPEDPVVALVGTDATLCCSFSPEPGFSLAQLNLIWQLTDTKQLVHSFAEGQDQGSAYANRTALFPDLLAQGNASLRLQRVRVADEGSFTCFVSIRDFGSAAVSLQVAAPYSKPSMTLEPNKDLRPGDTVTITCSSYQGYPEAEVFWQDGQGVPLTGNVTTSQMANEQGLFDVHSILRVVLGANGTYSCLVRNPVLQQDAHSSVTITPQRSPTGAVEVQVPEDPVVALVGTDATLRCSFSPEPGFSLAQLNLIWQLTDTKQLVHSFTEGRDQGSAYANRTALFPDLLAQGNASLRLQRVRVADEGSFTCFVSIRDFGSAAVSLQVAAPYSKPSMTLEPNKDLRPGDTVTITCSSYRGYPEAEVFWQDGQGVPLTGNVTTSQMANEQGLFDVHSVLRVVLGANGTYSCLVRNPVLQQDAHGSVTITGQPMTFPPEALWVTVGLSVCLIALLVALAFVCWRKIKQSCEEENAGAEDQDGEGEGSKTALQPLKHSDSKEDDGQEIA
As to the kind of experiment: Affinity determination by surface plasmon resonance (SPR) to 4Ig B7-H3. As to conditions: 4Ig B7-H3. (In general: SPR reads the build-up and loss of mass on a sensor chip optically.)

The mark [1] stands for this setting: SPR KD—25° C., 25° C. flow cell temperature.
Setting [2] is: SPR KD—37° C., 37° C. flow cell temperature.

Starred links: 1 amine or outer side, 2 acyl side, 3 side chain; linkers in the order of their positions; H or OH if unused. Positions of bridges follow the written chain, without caps; N, C: chain ends. Non-standard residues stand in square brackets, D forms with d. Residues, ends and D or L forms follow the SMILES beside them. Groups on a side chain read outwards from the residue. *: point of attachment. Ala(1-CH2CO2H-4-piperidyl) = N[C@@H](CC1CCN(CC(=O)O)CC1)C(=O)O; Ala(piperidin-4-yl) = O=C([C@H](CC1CCN([*:3])CC1)N[*:1])[*:2]; DOTA = O=C(O)CN1CCN(CC(=O)O)CCN(CC(=O)*)CCN(CC(=O)O)CC1; Phe(4-COOH) = N[C@@H](Cc1ccc(C(=O)O)cc1)C(=O)O; Trp(5-F) = N[C@@H](Cc1c[nH]c2ccc(F)cc12)C(=O)O; Trp(1-Me) = Cn1cc(C[C@H](N)C(=O)O)c2ccccc21; Phe(4-F) = N[C@@H](Cc1ccc(F)cc1)C(=O)O; γGlu = O=C(O)[C@H](CCC(=O)[*:2])N[*:1]; 1Nal = N[C@@H](Cc1cccc2ccccc12)C(=O)O; Ala(4-THP) = N[C@@H](CC1CCOCC1)C(=O)O; Val(3-OH) = CC(C)(O)[C@H](N)C(=O)O; 4Pal = N[C@@H](Cc1ccncc1)C(=O)O; Cha = N[C@@H](CC1CCCCC1)C(=O)O; PEG4 = NCCOCCOCCOCCOCCC(=O)O; Tle = CC(C)(C)[C@H](N)C(=O)O; hLeu = CC(C)CC[C@H](N)C(=O)O; NMeS = CN[C@@H](CO)C(=O)O; Nle = CCCC[C@H](N)C(=O)O; Sar = CNCC(=O)O

The term Kd denotes the free concentration of one partner at which half of the binding sites on the other are occupied at equilibrium, for simple one-to-one binding.

For the molecule `CC(=O)N[C@@H](CCC(C)C)C(=O)N[C@@H](Cc1ccc(O)cc1)C(=O)N[C@H]1CSSC[C@@H](C(=O)N[C@@H](Cc2c[nH]c3ccc(F)cc23)C(=O)N[C@@H](Cc2ccccc2)C(=O)N2CCC[C@H]2C(=O)N[C@H](CCCCNC(=O)CN2CCN(CC(=O)O)CCN(CC(=O)O)CCN(CC(=O)O)CC2)C(N)=O)NC(=O)[C@H](Cc2ccc(O)cc2)NC(=O)[C@H](C(C)C)NC(=O)[C@H](CC(=O)O)NC(=O)[C@H](Cc2ccc(C(=O)O)cc2)NC(=O)[C@H](CCCCN)NC(=O)CNC(=O)[C@H](C(C)C)NC1=O` [compound 291, Ac-hLeu-Y-C-V-G-K-4COOHPhe-D-V-Y-C-5FW-F-Pro-dLys(DOTA)-CONH2] (Ac-[hLeu]YCVGK[Phe(4-COOH)]DVYC[Trp(5-F)]FP[dK](DOTA)-NH2; disulfide 3-11), the Kd under setting [1] is less than 1 nM.

`CC(C)CC[C@H](NC(=O)CC[C@H](NC(=O)CC[C@H](NC(=O)CC[C@H](NC(=O)CN1CCN(CC(=O)O)CCN(CC(=O)O)CCN(CC(=O)O)CC1)C(=O)O)C(=O)O)C(=O)O)C(=O)N[C@@H](Cc1ccc(F)cc1)C(=O)N[C@H]1CSSC[C@@H](C(=O)N[C@@H](Cc2cccc3ccccc23)C(=O)N[C@@H](Cc2ccccc2)C(=O)N2CCC[C@H]2C(N)=O)NC(=O)[C@H](Cc2ccc(O)cc2)NC(=O)[C@H](C(C)C)NC(=O)[C@H](CC(=O)O)NC(=O)[C@H](CC2CCOCC2)NC(=O)[C@H](CC2CCNCC2)NC(=O)CNC(=O)[C@H](C(C)(C)C)NC1=O` [compound 272, DOTA-gE-gE-gE-hLeu-4FPhe-C-Tbg-G-PipAla-ThpA-D-V-Y-C-1Nal-F-Pro-CONH2] ({DOTA-γGlu-γGlu-γGlu}-[hLeu][Phe(4-F)]C[Tle]G[Ala(piperidin-4-yl)][Ala(4-THP)]DVYC[1Nal]FP-NH2; disulfide 3-11) gave a Kd under setting [1] of 100 to 300 nM.

Molecule `CCCC[C@H](NC(C)=O)C(=O)N[C@@H](Cc1ccc(O)cc1)C(=O)N[C@H]1CSSC[C@@H](C(=O)N[C@@H](Cc2cn(C)c3ccccc23)C(=O)N[C@@H](Cc2ccccc2)C(=O)N[C@H](C(=O)N[C@H](CCCCNC(=O)CN2CCN(CC(=O)O)CCN(CC(=O)O)CCN(CC(=O)O)CC2)C(N)=O)[C@@H](C)O)NC(=O)[C@H](Cc2ccc(O)cc2)NC(=O)[C@H](C(C)C)NC(=O)[C@H](CC(=O)O)NC(=O)[C@H](Cc2ccc(O)cc2)NC(=O)[C@H](CCCCN)NC(=O)CNC(=O)[C@H](C(C)C)NC1=O` [compound 132, Ac-Nle-Y-C-V-G-K-Y-D-V-Y-C-Trp(Me)-F-Thr-dLys(DOTA)-CONH2] (Ac-[Nle]YCVGKYDVYC[Trp(1-Me)]FT[dK](DOTA)-NH2; disulfide 3-11) registered a Kd under setting [1] of 1 to 10 nM.

Molecule `CC(=O)N[C@@H](CCC(C)C)C(=O)N[C@@H](Cc1ccc(O)cc1)C(=O)N[C@H]1CSSC[C@@H](C(=O)N[C@@H](Cc2c[nH]c3ccc(F)cc23)C(=O)N[C@@H](Cc2ccccc2)C(=O)N[C@H](C(=O)N[C@H](C)C(=O)O)C(C)(C)O)NC(=O)[C@H](Cc2ccc(O)cc2)NC(=O)[C@H](C(C)C)NC(=O)[C@H](CC(=O)O)NC(=O)[C@H](CC2CCN(C(=O)CCOCCOCCOCCOCCNC(=O)CN3CCN(CC(=O)O)CCN(CC(=O)O)CCN(CC(=O)O)CC3)CC2)NC(=O)[C@H](CC2CCN(CC(=O)O)CC2)NC(=O)CNC(=O)[C@H](C(C)(C)C)NC1=O` [compound 488, Ac-hLeu-Y-C-Tbg-G-Pip(CH2COOH)Ala-Pip(PEG4-DOTA)Ala-D-V-Y-C-5FW-F-hydroxyVal-dAla-COOH] (Ac-[hLeu]YC[Tle]G[Ala(1-CH2CO2H-4-piperidyl)][Ala(piperidin-4-yl)]([PEG4-DOTA])DVYC[Trp(5-F)]F[Val(3-OH)][dA]-OH; disulfide 3-11) registered a Kd under setting [2] of less than 1 nM.

`CC(=O)N[C@@H](CCC(C)C)C(=O)N[C@@H](Cc1ccc(O)cc1)C(=O)N[C@H]1CSSC[C@@H](C(=O)N[C@@H](Cc2cccc3ccccc23)C(=O)N[C@@H](Cc2ccccc2)C(=O)N(C)[C@@H](CO)C(=O)N[C@H](CCCCNC(=O)CN2CCN(CC(=O)O)CCN(CC(=O)O)CCN(CC(=O)O)CC2)C(N)=O)NC(=O)[C@H](CC2CCCCC2)NC(=O)[C@H](C(C)C)NC(=O)[C@H](CC(=O)O)NC(=O)[C@H](Cc2ccncc2)NC(=O)[C@H](CCCCN)NC(=O)CNC(=O)[C@H](C(C)(C)C)NC1=O` [compound 220, Ac-hLeu-Y-C-Tbg-G-K-4PyA-D-V-Cha-C-1Nal-F-NMeSer-dLys(DOTA)-CONH2] (Ac-[hLeu]YC[Tle]GK[4Pal]DV[Cha]C[1Nal]F[NMeS][dK](DOTA)-NH2; disulfide 3-11): the Kd under setting [1] lay in the range of 10 to 100 nM.

As for `CC(=O)N[C@@H](CCC(C)C)C(=O)N[C@H](C(=O)N[C@H]1CSSC[C@@H](C(=O)N[C@@H](Cc2c[nH]c3ccc(F)cc23)C(=O)N[C@@H](Cc2ccccc2)C(=O)N(C)[C@@H](CO)C(=O)N[C@H](CCCCNC(=O)CN2CCN(CC(=O)O)CCN(CC(=O)O)CCN(CC(=O)O)CC2)C(N)=O)NC(=O)[C@H](Cc2ccc(O)cc2)NC(=O)[C@H](C(C)C)NC(=O)[C@H](CC(=O)O)NC(=O)[C@H](Cc2ccc(O)cc2)NC(=O)[C@H](CC2CCNCC2)NC(=O)CNC(=O)[C@H](C(C)C)NC1=O)C(C)(C)O` [compound 211, Ac-hLeu-hyVal-C-V-G-PipAla-Y-D-V-Y-C-5FW-F-NMeSer-dLys(DOTA)-CONH2] (Ac-[hLeu][Val(3-OH)]CVG[Ala(piperidin-4-yl)]YDVYC[Trp(5-F)]F[NMeS][dK](DOTA)-NH2; disulfide 3-11), under setting [1], the dissociation constant (Kd) lay within 10 to 100 nM.

Turning to `CC(=O)N[C@@H](CCC(C)C)C(=O)N[C@@H](Cc1ccc(O)cc1)C(=O)N[C@H]1CSSC[C@@H](C(=O)N[C@@H](Cc2c[nH]c3ccc(F)cc23)C(=O)N[C@@H](Cc2ccccc2)C(=O)N[C@H](C(=O)N[C@H](CCCCNC(=O)CN2CCN(CC(=O)O)CCN(CC(=O)O)CCN(CC(=O)O)CC2)C(=O)O)[C@@H](C)O)NC(=O)[C@H](Cc2ccc(O)cc2)NC(=O)[C@H](C(C)C)NC(=O)[C@H](CC(=O)O)NC(=O)[C@H](CC2CCOCC2)NC(=O)[C@H](CCCCN)NC(=O)CN(C)C(=O)[C@H](C(C)C)NC1=O` [compound 362, Ac-hLeu-Y-C-V-Sar-K-ThpA-D-V-Y-C-5FW-F-Thr-dLys(DOTA)-COOH] (Ac-[hLeu]YCV[Sar]K[Ala(4-THP)]DVYC[Trp(5-F)]FT[dK](DOTA)-OH; disulfide 3-11), the Kd under setting [1] is less than 1 nM.

With `CCCC[C@H](NC(C)=O)C(=O)N[C@@H](Cc1ccc(O)cc1)C(=O)N[C@H]1CSSC[C@@H](C(=O)N[C@@H](Cc2c[nH]c3ccccc23)C(=O)N[C@@H](Cc2ccccc2)C(=O)N[C@H](C(=O)N[C@H](CCCCNC(=O)CN2CCN(CC(=O)O)CCN(CC(=O)O)CCN(CC(=O)O)CC2)C(N)=O)[C@@H](C)O)NC(=O)[C@H](Cc2ccc(O)cc2)NC(=O)[C@H](C(C)C)NC(=O)[C@H](CO)NC(=O)[C@H](Cc2ccc(O)cc2)NC(=O)[C@H](CCCCN)NC(=O)CNC(=O)[C@H](C(C)C)NC1=O` [compound 81, Ac-Nle-Y-C-V-G-K-Y-S-V-Y-C-W-F-Thr-dLys(DOTA)-CONH2] (Ac-[Nle]YCVGKYSVYCWFT[dK](DOTA)-NH2; disulfide 3-11), the Kd under setting [1] is 100 to 300 nM.

The molecule `CC(=O)N[C@@H](CCC(C)C)C(=O)N[C@@H](Cc1ccc(O)cc1)C(=O)N[C@H]1CSSC[C@@H](C(=O)N[C@@H](Cc2c[nH]c3ccc(F)cc23)C(=O)N[C@@H](Cc2ccccc2)C(=O)N[C@H](C(=O)N[C@H](CCCCNC(=O)CN2CCN(CC(=O)O)CCN(CC(=O)O)CCN(CC(=O)O)CC2)C(=O)O)C(C)(C)O)NC(=O)[C@H](Cc2ccc(O)cc2)NC(=O)[C@H](C(C)C)NC(=O)[C@H](CC(=O)O)NC(=O)[C@H](CC2CCC(O)CC2)NC(=O)[C@H](CC2CCNCC2)NC(=O)CNC(=O)[C@H](C(C)(C)C)NC1=O` (single isomer, unassigned) [compound 479, Ac-hLeu-Y-C-Tbg-G-PipAla-4OHCha(pk1)-D-V-Y-C-5FW-F-hydroxyVal-dLys(DOTA)-COOH] showed a Kd under setting [2] of less than 1 nM.

Under setting [2], `CC(=O)N[C@@H](CCC(C)C)C(=O)N[C@@H](Cc1ccc(O)cc1)C(=O)N[C@H]1CSSC[C@@H](C(=O)N[C@@H](Cc2c[nH]c3ccc(F)cc23)C(=O)N[C@@H](Cc2ccccc2)C(=O)N[C@H](C(=O)N[C@H](CCCCNC(=O)CC[C@H](NC(=O)CN2CCN(CC(=O)O)CCN(CC(=O)O)CCN(CC(=O)O)CC2)C(=O)O)C(N)=O)C(C)(C)O)NC(=O)[C@H](Cc2ccc(O)cc2)NC(=O)[C@H](C(C)C)NC(=O)[C@H](CC(=O)O)NC(=O)[C@H](CC2CCOCC2)NC(=O)[C@H](CC2CCNCC2)NC(=O)CNC(=O)[C@H](C(C)(C)C)NC1=O` [compound 452, Ac-hLeu-Y-C-Tbg-G-PipAla-ThpA-D-V-Y-C-5FW-F-hydroxyVal-dLys(gE-DOTA)-CONH2] (Ac-[hLeu]YC[Tle]G[Ala(piperidin-4-yl)][Ala(4-THP)]DVYC[Trp(5-F)]F[Val(3-OH)][dK]([γGlu-DOTA])-NH2; disulfide 3-11) had a Kd of less than 1 nM.

Under setting [1], `CC(=O)N[C@@H](CCC(C)C)C(=O)N[C@@H](Cc1ccc(O)cc1)C(=O)N[C@H]1CSSC[C@@H](C(=O)N[C@@H](Cc2c[nH]c3ccc(F)cc23)C(=O)N[C@@H](Cc2ccccc2)C(=O)N(C)[C@@H](CO)C(N)=O)NC(=O)[C@H](Cc2ccc(O)cc2)NC(=O)[C@H](C(C)C)NC(=O)[C@H](CC(=O)O)NC(=O)[C@H](CC2CCCCC2)NC(=O)[C@H](CCCCNC(=O)CN2CCN(CC(=O)O)CCN(CC(=O)O)CCN(CC(=O)O)CC2)NC(=O)CNC(=O)[C@H](C(C)C)NC1=O` [compound 233, Ac-hLeu-Y-C-V-G-Lys(DOTA)-CHA-D-V-Y-C-5FW-F-NMeSer-CONH2] (Ac-[hLeu]YCVGK(DOTA)[Cha]DVYC[Trp(5-F)]F[NMeS]-NH2; disulfide 3-11) had a Kd of 10 to 100 nM.

The values above are taken from patent publication US20250296959A1, “B7-H3 TARGETING PEPTIDES AND CONSTRUCTS THEREOF” (Mariana Oncology Inc., priority 2024, published 2025).
